From ChEMBL document CHEMBL1255480, “Characterization of DIM-1, an integron-encoded metallo-beta-lactamase from a Pseudomonas stutzeri clinical isolate in the Netherlands” (2010)
≈ marks a conversion by molar mass, not a printed value.

How the values were obtained:
Escherichia coli [1] = assay: Antimicrobial activity against Escherichia coli TOP10 harboring beta-lactamase DIM-1 by agar dilution method in presence of beta-lactam inhibitor Tazobactam; type: functional
Escherichia coli [2] = assay: Antimicrobial activity against Escherichia coli TOP10 harboring beta-lactamase DIM-1 by agar dilution method; type: functional
Escherichia coli [3] = assay: Antimicrobial activity against Escherichia coli TOP10 by agar dilution method in presence of beta-lactam inhibitor Tazobactam; type: functional
Stutzerimonas stutzeri [4] = assay: Antimicrobial activity against Pseudomonas stutzeri clinical isolate expressing beta-lactamase DIM-1 by agar dilution method in presence of beta-lactam inhibitor Tazobactam; type: functional
Escherichia coli [5] = assay: Antimicrobial activity against Escherichia coli TOP10 by agar dilution method; type: functional
Stutzerimonas stutzeri [6] = assay: Antimicrobial activity against Pseudomonas stutzeri clinical isolate expressing beta-lactamase DIM-1 by agar dilution method; type: functional
[7] = molecular target: T1, Metallo-beta-lactamase (Pseudomonas stutzeri) (UniProt D5JGF6); assay: Ratio of Kcat to Km for Pseudomonas stutzeri beta-lactamase DIM-1by UV-spectrophotometry; parameters: unit not given here; details: Stutzerimonas stutzeri
T1 sequence (whole entry): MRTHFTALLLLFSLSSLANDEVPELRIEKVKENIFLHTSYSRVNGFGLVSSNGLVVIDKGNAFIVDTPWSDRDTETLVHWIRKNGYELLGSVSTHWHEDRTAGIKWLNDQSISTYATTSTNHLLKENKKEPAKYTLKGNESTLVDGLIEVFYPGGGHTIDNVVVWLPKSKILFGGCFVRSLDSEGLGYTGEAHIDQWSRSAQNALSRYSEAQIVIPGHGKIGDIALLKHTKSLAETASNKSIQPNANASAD

Escherichia coli [8] = assay: Antimicrobial activity against Escherichia coli TOP10 harboring beta-lactamase DIM-1 by agar dilution method in presence of beta-lactam inhibitor clavulanic acid; type: functional
Stutzerimonas stutzeri [9] = assay: Antimicrobial activity against Pseudomonas stutzeri clinical isolate expressing beta-lactamase DIM-1 by agar dilution method in presence of beta-lactam inhibitor clavulanic acid; type: functional
Escherichia coli [10] = assay: Antimicrobial activity against Escherichia coli TOP10 by agar dilution method in presence of beta-lactam inhibitor clavulanic acid; type: functional
[11] = substrate: CO/N=C(\C(=O)N[C@@H]1C(=O)N2C(C(=O)[O-])=C(C[N+]3(C)CCCC3)CS[C@H]12)c1csc(N)n1; assay: (§1) Activity of Pseudomonas stutzeri beta-lactamase DIM-1 by UV-spectrophotometry; details: Stutzerimonas stutzeri
[12] = substrate: CC1(C)S[C@@H]2[C@H](NC(=O)[C@H](N)c3ccccc3)C(=O)N2[C@H]1C(=O)O; assay: as §1; details: Stutzerimonas stutzeri
[13] = substrate: CC1(C)S[C@@H]2[C@H](NC(=O)Cc3ccccc3)C(=O)N2[C@H]1C(=O)O; assay: as §1; details: Stutzerimonas stutzeri
[14] = substrate: CC(=O)OCC1=C(C(=O)O)N2C(=O)[C@@H](NC(=O)Cc3cccs3)[C@H]2SC1; assay: as §1; details: Stutzerimonas stutzeri
[15] = substrate: C[C@H]1[C@H](NC(=O)/C(=N\OC(C)(C)C(=O)O)c2csc(N)n2)C(=O)N1S(=O)(=O)O; assay: as §1; details: Stutzerimonas stutzeri
[16] = substrate: CC(C)(O/N=C(\C(=O)N[C@@H]1C(=O)N2C(C(=O)[O-])=C(C[n+]3ccccc3)CS[C@H]12)c1csc(N)n1)C(=O)O; assay: as §1; details: Stutzerimonas stutzeri
[17] = substrate: CO/N=C(\C(=O)N[C@@H]1C(=O)N2C(C(=O)O)=C(COC(C)=O)CS[C@H]12)c1csc(N)n1; assay: as §1; details: Stutzerimonas stutzeri
[18] = substrate: CC1(C)S[C@@H]2[C@H](NC(=O)[C@H](C(=O)O)c3ccsc3)C(=O)N2[C@H]1C(=O)O; assay: as §1; details: Stutzerimonas stutzeri
[19] = substrate: C[C@@H](O)[C@H]1C(=O)N2C(C(=O)O)=C(S[C@@H]3CN[C@H](C(=O)N(C)C)C3)[C@H](C)[C@H]12; assay: as §1; details: Stutzerimonas stutzeri
[20] = substrate: CO[C@@]1(NC(=O)Cc2cccs2)C(=O)N2C(C(=O)O)=C(COC(N)=O)CS[C@@H]21; assay: as §1; details: Stutzerimonas stutzeri
[21] = substrate: C[C@@H](O)[C@H]1C(=O)N2C(C(=O)O)=C(SCCNC=N)C[C@H]12; assay: as §1; details: Stutzerimonas stutzeri

CCN1CCN(C(=O)N[C@@H](C(=O)N[C@@H]2C(=O)N3[C@@H]2SC(C)(C)[C@@H]3C(=O)O)c2ccccc2)C(=O)C1=O [PIPERACILLIN]
MIC (Escherichia coli [1]): 512 µg/mL
MIC (Escherichia coli [2]): > 512 µg/mL
MIC (Escherichia coli [3]): 1 µg/mL
MIC (Stutzerimonas stutzeri [4]): 512 µg/mL
MIC (Escherichia coli [5]): 1 µg/mL (≈ 1.93 µM)
MIC (Stutzerimonas stutzeri [6]): > 512 µg/mL

C[C@H]1[C@H](NC(=O)/C(=N\OC(C)(C)C(=O)O)c2csc(N)n2)C(=O)N1S(=O)(=O)O [AZTREONAM]
MIC (Escherichia coli [2]): 0.25 µg/mL (≈ 0.574 µM)

C[C@@H](O)[C@H]1C(=O)N2C(C(=O)O)=C(S[C@@H]3CN[C@H](C(=O)N(C)C)C3)[C@H](C)[C@H]12
Ratio [7]: 200

CC1(C)S[C@@H]2[C@H](NC(=O)Cc3ccccc3)C(=O)N2[C@H]1C(=O)O
Ratio [7]: 2800

CO[C@@]1(NC(=O)Cc2cccs2)C(=O)N2C(C(=O)O)=C(COC(N)=O)CS[C@@H]21 [CEFOXITIN]
Ratio [7]: 400
MIC (Escherichia coli [2]): 512 µg/mL (≈ 1200 µM)
MIC (Escherichia coli [5]): 4 µg/mL (≈ 9.36 µM)
MIC (Stutzerimonas stutzeri [6]): 512 µg/mL (≈ 1200 µM)

CC1(C)S[C@@H]2[C@H](NC(=O)[C@H](C(=O)O)c3ccsc3)C(=O)N2[C@H]1C(=O)O [TICARCILLIN]
Ratio [7]: 15000
MIC (Escherichia coli [8]): > 512 µg/mL
MIC (Escherichia coli [2]): > 512 µg/mL
MIC (Stutzerimonas stutzeri [9]): > 512 µg/mL
MIC (Escherichia coli [10]): 4 µg/mL
MIC (Escherichia coli [5]): 4 µg/mL (≈ 10.4 µM)
MIC (Stutzerimonas stutzeri [6]): > 512 µg/mL

CO/N=C(\C(=O)N[C@@H]1C(=O)N2C(C(=O)[O-])=C(C[N+]3(C)CCCC3)CS[C@H]12)c1csc(N)n1
MIC (Escherichia coli [2]): 1 µg/mL (≈ 2.08 µM)

CC(=O)OCC1=C(C(=O)O)N2C(=O)[C@@H](NC(=O)Cc3cccs3)[C@H]2SC1
Ratio [7]: 5000

CC1(C)S[C@@H]2[C@H](NC(=O)[C@H](N)c3ccccc3)C(=O)N2[C@H]1C(=O)O
Ratio [7]: 180

CO/N=C(\C(=O)N[C@@H]1C(=O)N2C(C(=O)O)=C(COC(C)=O)CS[C@H]12)c1csc(N)n1 [CEFOTAXIME]
Ratio [7]: 3000
MIC (Escherichia coli [2]): 256 µg/mL (≈ 562 µM)
MIC (Escherichia coli [5]): 0.12 µg/mL (≈ 0.263 µM)
MIC (Stutzerimonas stutzeri [6]): 512 µg/mL (≈ 1120 µM)

C[C@@H](O)[C@H]1C(=O)N2C(C(=O)O)=C(SCCNC=N)C[C@H]12 [IMIPENEM ANHYDROUS]
Ratio [7]: 440
MIC (Escherichia coli [2]): 2 µg/mL (≈ 6.68 µM)
MIC (Stutzerimonas stutzeri [6]): 64 µg/mL (≈ 214 µM)

CC(C)(O/N=C(\C(=O)N[C@@H]1C(=O)N2C(C(=O)[O-])=C(C[n+]3ccccc3)CS[C@H]12)c1csc(N)n1)C(=O)O [CEFTAZIDIME]
Ratio [7]: 60
MIC (Escherichia coli [2]): 256 µg/mL (≈ 468 µM)
MIC (Escherichia coli [5]): 0.06 µg/mL (≈ 0.11 µM)
MIC (Stutzerimonas stutzeri [6]): 8 µg/mL (≈ 14.6 µM)

CC1(C)S[C@@H]2[C@H](NC(=O)[C@H](N)c3ccc(O)cc3)C(=O)N2[C@H]1C(=O)O [AMOXICILLIN]
MIC (Escherichia coli [8]): > 512 µg/mL
MIC (Escherichia coli [2]): > 512 µg/mL
MIC (Stutzerimonas stutzeri [9]): > 512 µg/mL
MIC (Escherichia coli [10]): 4 µg/mL
MIC (Escherichia coli [5]): 4 µg/mL (≈ 10.9 µM)
MIC (Stutzerimonas stutzeri [6]): > 512 µg/mL

B1: Metallo-beta-lactamase (Pseudomonas stutzeri), D5JGF6 (protein)
chain: T1 sequence (whole entry)
Km [11]: 220 µM
kcat [11]: 3 s⁻¹
Km [12]: 110 µM
kcat [12]: 20 s⁻¹
Km [13]: 90 µM
kcat [13]: 250 s⁻¹
Km [14]: 6 µM
kcat [14]: 30 s⁻¹
kcat [15]: < 0.01 s⁻¹
Km [16]: 50 µM
kcat [16]: 3 s⁻¹
Km [17]: 3.5 µM
kcat [17]: 10 s⁻¹
Km [18]: 80 µM
kcat [18]: 250 s⁻¹
Km [19]: 20 µM
kcat [19]: 4 s⁻¹
Km [20]: 20 µM
kcat [20]: 8 s⁻¹
Km [21]: 80 µM
kcat [21]: 35 s⁻¹
